Measurements as given in ChEMBL document CHEMBL2203257 (Bioorg Med Chem Lett, 2012).

Columns and labels:
[1] = target: Calcium/calmodulin-dependent protein kinase type II subunit gamma (Homo sapiens, UniProt Q13555); assay: Inhibition of CAMK2G
[2] = target: Calcium/calmodulin-dependent protein kinase kinase 1 (Homo sapiens, UniProt Q8N5S9); assay: Inhibition of CAMKK1
[3] = target: Cyclin-dependent kinase 7 (Homo sapiens, UniProt P50613); assay: Inhibition of CDK7
[4] = target: Casein kinase II subunit alpha (Homo sapiens, UniProt P68400); assay: Inhibition of CK2a1
[5] = target: Casein kinase I isoform alpha (Homo sapiens, UniProt P48729); assay: Inhibition of CSNK1A1
[6] = target: Tyrosine-protein kinase Fgr (Homo sapiens, UniProt P09769); assay: Inhibition of FGR
[7] = target: Glycogen synthase kinase-3 alpha (Homo sapiens, UniProt P49840); assay: Inhibition of GSK3A
[8] = target: Glycogen synthase kinase-3 beta (Homo sapiens, UniProt P49841); assay: Inhibition of GSK3B
[9] = target: Inhibitor of nuclear factor kappa-B kinase subunit epsilon (Homo sapiens, UniProt Q14164); assay: Inhibition of IKBKE
[10] = target: Interleukin-1 receptor-associated kinase 3 (Homo sapiens, UniProt Q9Y616); assay: Inhibition of IRAK3
[11] = target: Mitogen-activated protein kinase kinase kinase 2 (Homo sapiens, UniProt Q9Y2U5); assay: Inhibition of MAP3K2
[12] = target: Mitogen-activated protein kinase kinase kinase 3 (Homo sapiens, UniProt Q99759); assay: Inhibition of MAP3K3
[13] = target: Mitogen-activated protein kinase kinase kinase kinase 3 (Homo sapiens, UniProt Q8IVH8); assay: Inhibition of MAP4K3
[14] = target: Mitogen-activated protein kinase 8 (Homo sapiens, UniProt P45983); assay: Inhibition of MAPK8
[15] = target: Serine/threonine-protein kinase mTOR (Homo sapiens, UniProt P42345); assay: Inhibition of mTOR
[16] = target: Serine/threonine-protein kinase PAK 4 (Homo sapiens, UniProt O96013); assay: Inhibition of PAK4
[17] = target: Phosphorylase b kinase gamma catalytic chain, liver/testis isoform (Homo sapiens, UniProt P15735); assay: Inhibition of PHKG2
[18] = target: Phosphatidylinositol 4,5-bisphosphate 3-kinase catalytic subunit beta isoform (Homo sapiens, UniProt P42338); assay: Inhibition of PIK3Cb
[19] = target: T1, Phosphatidylinositol 4,5-bisphosphate 3-kinase catalytic subunit delta isoform (Homo sapiens, UniProt O00329); assay: Inhibition of PIK3Cd
T1 sequence (O00329 whole entry): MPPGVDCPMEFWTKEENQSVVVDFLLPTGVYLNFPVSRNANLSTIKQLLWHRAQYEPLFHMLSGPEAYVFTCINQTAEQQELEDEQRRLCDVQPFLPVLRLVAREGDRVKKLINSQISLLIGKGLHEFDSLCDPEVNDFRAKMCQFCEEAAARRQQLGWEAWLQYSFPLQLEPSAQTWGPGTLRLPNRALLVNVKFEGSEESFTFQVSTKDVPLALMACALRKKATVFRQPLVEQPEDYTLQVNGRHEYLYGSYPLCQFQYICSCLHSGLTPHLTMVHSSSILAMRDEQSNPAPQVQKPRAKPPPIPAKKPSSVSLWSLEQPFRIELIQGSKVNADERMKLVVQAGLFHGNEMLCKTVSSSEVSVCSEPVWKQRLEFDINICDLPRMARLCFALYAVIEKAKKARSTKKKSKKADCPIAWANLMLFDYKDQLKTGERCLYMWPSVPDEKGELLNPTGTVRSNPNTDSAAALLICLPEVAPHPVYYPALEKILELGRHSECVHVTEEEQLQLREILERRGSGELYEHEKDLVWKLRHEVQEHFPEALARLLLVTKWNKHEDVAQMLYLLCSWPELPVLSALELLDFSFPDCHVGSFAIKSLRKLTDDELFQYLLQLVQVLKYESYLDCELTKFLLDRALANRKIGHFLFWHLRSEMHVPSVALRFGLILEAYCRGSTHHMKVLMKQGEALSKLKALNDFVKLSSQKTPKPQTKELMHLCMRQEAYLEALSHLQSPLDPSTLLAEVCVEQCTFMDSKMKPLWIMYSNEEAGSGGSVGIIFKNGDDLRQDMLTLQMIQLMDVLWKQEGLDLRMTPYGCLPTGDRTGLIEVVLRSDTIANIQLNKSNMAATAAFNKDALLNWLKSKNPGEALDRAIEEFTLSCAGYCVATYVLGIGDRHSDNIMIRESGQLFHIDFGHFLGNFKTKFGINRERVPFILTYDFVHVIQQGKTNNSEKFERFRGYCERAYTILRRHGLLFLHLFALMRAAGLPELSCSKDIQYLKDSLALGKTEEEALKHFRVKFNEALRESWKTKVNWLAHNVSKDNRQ

[20] = target: Protein-tyrosine kinase 6 (Homo sapiens, UniProt Q13882); assay: Inhibition of PTK6
[21] = target: Ribosomal protein S6 kinase alpha-1 (Homo sapiens, UniProt Q15418); assay: Inhibition of RPS6KA1
[22] = target: Tyrosine-protein kinase SYK (Homo sapiens, UniProt P43405); assay: Inhibition of SYK
[23] = target: Serine/threonine-protein kinase TBK1 (Homo sapiens, UniProt Q9UHD2); assay: Inhibition of TBK1
[24] = target: Dual specificity testis-specific protein kinase 1 (Homo sapiens, UniProt Q15569); assay: Inhibition of TESK1
TGF-beta receptor type-1 = TGF-beta receptor type-1 (Homo sapiens, UniProt P36897); assay: Inhibition of TGFBR1
[25] = target: Non-receptor tyrosine-protein kinase TNK1 (Homo sapiens, UniProt Q13470); assay: Inhibition of TNK1
Activated CDC42 kinase 1 = Activated CDC42 kinase 1 (Homo sapiens, UniProt Q07912); assay: Inhibition of TNK2
[26] = target: Non-receptor tyrosine-protein kinase TYK2 (Homo sapiens, UniProt P29597); assay: Inhibition of TYK2
[27] = Half life in rat […] at 5 mg/kg, po; 1 mg/kg, iv; format: ADME, organism-based
[28] = Half life in cynomolgus monkey; format: ADME, organism-based, Macaca fascicularis; conditions: in vivo
[29] = Oral bioavailability in cynomolgus monkey; format: ADME, organism-based, Macaca fascicularis; conditions: in vivo
Cytochrome P450 1A2 = Cytochrome P450 1A2 (Homo sapiens, UniProt P05177); assay: Inhibition of CYP1A2 at >20 uM; format: ADME
Mus musculus [30] = assay: Antiinflammatory activity in mouse air pouch model assessed as effect on IL-8-induced migration of granulocytes into air pouch at 1 mg/kg, po; format: functional
Mus musculus [31] = assay: Antiinflammatory activity in mouse air pouch model assessed as effect on IL-8-induced migration of granulocytes into air pouch at 10 mg/kg, po; format: functional
[32] = target: Serine/threonine-protein kinase ATR (Homo sapiens, UniProt Q13535); assay: Inhibition of ATR
[33] = target: BMP-2-inducible protein kinase (Homo sapiens, UniProt Q9NSY1); assay: Inhibition of BMP2K
[34] = target: Bromodomain-containing protein 3 (Homo sapiens, UniProt Q15059); assay: Inhibition of BRD3

Chain of Glycogen synthase kinase-3 alpha (P49840 whole entry): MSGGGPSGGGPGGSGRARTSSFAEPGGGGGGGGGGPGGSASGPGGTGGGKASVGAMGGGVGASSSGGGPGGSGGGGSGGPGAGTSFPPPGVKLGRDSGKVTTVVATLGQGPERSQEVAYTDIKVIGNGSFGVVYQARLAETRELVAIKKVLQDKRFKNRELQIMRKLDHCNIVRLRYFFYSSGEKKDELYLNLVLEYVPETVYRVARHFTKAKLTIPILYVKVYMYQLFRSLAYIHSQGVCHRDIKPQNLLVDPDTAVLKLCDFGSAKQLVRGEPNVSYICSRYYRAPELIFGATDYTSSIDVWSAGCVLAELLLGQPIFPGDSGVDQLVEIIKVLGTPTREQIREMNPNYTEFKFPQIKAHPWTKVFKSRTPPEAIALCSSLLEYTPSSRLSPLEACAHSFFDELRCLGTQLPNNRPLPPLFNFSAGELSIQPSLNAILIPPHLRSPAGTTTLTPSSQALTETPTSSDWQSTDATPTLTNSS
Chain of BMP-2-inducible protein kinase (Q9NSY1 whole entry): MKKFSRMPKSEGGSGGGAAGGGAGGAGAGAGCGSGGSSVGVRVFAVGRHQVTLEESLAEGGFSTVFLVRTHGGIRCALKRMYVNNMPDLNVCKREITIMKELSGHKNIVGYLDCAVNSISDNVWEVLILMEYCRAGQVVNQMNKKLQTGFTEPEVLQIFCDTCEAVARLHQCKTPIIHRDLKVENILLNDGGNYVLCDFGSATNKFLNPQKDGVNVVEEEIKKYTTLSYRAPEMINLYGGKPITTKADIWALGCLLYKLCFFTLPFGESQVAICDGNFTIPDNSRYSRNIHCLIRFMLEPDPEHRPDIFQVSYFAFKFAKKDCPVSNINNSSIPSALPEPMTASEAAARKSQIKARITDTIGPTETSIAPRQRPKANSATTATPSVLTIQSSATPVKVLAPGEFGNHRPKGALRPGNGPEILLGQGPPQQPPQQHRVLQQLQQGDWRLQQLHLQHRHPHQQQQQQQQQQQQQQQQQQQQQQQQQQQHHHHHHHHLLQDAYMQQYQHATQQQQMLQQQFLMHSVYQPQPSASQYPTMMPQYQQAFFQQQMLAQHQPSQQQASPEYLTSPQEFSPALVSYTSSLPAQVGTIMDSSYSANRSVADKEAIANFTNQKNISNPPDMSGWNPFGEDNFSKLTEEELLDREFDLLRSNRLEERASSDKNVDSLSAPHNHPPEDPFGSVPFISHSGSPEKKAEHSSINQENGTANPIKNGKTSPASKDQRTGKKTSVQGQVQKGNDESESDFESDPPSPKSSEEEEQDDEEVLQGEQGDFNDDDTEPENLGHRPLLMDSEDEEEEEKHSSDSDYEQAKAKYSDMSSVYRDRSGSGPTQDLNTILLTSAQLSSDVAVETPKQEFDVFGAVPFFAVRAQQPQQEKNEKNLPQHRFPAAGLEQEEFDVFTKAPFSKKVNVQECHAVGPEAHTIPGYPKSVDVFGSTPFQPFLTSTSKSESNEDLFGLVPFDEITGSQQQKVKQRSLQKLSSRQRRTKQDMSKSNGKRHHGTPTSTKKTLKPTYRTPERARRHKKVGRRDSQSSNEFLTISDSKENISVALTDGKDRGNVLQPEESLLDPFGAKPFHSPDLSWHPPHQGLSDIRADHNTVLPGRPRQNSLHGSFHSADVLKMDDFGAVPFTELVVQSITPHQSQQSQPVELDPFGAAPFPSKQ
Chain of Serine/threonine-protein kinase PAK 4 (O96013 whole entry, canonical isoform): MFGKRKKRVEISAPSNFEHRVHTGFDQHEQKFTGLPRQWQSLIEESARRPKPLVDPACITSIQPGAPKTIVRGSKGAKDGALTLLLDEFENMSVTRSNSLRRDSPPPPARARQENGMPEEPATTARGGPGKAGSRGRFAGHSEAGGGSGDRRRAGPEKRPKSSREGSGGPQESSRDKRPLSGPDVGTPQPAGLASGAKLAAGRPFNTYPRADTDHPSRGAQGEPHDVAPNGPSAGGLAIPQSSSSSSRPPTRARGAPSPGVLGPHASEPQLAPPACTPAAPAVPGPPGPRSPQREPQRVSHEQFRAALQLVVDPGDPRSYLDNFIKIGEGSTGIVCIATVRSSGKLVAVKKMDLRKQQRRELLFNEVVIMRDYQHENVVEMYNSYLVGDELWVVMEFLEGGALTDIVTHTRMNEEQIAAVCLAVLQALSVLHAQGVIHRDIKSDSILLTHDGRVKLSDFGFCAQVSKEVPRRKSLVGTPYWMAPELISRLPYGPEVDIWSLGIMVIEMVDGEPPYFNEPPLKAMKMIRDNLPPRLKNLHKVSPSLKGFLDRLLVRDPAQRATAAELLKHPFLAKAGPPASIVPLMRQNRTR
Chain of Calcium/calmodulin-dependent protein kinase kinase 1 (Q8N5S9 whole entry): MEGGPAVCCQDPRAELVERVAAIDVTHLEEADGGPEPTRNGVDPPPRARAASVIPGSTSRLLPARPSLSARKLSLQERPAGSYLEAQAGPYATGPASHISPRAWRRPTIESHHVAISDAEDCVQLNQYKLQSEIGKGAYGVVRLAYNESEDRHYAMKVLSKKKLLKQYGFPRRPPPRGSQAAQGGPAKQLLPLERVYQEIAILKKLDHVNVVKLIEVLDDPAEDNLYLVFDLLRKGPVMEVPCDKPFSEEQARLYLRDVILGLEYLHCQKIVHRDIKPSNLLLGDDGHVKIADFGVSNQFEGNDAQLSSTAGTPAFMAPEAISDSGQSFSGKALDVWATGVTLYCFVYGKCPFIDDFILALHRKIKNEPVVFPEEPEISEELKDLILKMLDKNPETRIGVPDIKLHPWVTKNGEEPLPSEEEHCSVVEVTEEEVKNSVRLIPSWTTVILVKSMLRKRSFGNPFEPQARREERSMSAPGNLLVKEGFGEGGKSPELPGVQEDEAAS
Chain of Cyclin-dependent kinase 7 (P50613 whole entry): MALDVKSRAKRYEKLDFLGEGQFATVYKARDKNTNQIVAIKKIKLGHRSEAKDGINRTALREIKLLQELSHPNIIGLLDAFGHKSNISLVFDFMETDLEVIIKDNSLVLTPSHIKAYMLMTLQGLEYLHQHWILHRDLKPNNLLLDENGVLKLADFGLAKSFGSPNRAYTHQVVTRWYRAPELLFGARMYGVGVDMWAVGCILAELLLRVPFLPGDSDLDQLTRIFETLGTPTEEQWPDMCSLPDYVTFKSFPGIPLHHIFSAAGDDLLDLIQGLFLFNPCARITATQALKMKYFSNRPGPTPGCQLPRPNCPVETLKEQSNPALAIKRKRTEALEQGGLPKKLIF
Chain of Dual specificity testis-specific protein kinase 1 (Q15569 whole entry): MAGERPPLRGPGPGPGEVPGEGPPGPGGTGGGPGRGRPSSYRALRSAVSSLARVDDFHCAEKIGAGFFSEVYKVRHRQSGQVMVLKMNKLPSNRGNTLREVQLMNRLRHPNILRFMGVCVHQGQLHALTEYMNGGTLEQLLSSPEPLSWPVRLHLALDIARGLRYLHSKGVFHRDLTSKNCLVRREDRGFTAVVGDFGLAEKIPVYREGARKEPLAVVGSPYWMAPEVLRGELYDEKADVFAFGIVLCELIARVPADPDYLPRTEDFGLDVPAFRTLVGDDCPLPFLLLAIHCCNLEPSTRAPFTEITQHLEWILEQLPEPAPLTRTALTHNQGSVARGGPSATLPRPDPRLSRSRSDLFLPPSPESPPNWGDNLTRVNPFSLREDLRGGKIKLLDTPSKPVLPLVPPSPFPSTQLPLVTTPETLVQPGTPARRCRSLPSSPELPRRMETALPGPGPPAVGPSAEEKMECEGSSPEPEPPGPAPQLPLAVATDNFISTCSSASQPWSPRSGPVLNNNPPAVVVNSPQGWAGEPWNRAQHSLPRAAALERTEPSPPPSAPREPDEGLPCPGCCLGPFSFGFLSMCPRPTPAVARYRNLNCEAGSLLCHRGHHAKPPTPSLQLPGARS
Chain of Glycogen synthase kinase-3 beta (P49841 whole entry): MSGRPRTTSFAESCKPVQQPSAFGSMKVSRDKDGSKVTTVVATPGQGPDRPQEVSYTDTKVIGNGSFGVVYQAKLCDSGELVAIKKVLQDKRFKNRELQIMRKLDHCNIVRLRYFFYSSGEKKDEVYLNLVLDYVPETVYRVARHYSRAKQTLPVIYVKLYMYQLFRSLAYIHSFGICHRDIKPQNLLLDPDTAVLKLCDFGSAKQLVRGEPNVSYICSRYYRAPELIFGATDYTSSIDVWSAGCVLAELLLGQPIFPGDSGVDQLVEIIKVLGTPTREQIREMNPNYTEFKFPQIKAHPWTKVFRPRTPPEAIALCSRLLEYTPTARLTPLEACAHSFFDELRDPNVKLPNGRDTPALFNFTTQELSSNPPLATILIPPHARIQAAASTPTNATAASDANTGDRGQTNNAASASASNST
Chain of Serine/threonine-protein kinase TBK1 (Q9UHD2 whole entry): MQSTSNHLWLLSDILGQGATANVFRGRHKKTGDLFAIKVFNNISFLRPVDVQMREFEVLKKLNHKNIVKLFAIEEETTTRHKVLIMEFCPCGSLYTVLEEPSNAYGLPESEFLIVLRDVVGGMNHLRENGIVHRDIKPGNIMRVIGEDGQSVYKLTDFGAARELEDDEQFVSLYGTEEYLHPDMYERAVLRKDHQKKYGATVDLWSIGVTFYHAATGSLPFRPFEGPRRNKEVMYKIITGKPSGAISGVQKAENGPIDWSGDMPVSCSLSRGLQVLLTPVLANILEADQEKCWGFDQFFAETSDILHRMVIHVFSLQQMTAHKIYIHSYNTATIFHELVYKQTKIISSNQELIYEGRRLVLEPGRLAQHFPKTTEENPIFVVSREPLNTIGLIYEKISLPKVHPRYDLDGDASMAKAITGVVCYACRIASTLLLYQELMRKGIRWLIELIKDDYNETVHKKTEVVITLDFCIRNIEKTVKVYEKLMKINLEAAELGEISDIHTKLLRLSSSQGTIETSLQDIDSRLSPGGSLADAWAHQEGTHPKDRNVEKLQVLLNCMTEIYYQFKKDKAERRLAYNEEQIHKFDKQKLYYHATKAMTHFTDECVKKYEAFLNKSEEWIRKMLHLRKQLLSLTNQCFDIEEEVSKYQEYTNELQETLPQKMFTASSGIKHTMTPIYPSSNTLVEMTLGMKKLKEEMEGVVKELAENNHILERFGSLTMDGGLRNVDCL

- IC50 [1]: > 10 µM
- IC50 [2]: > 10 µM
- IC50 [3]: > 10 µM
- IC50 [4]: > 10 µM
- IC50 [5]: 9.12 µM
- IC50 [6]: > 10 µM
- IC50 [7]: > 10 µM
- IC50 [8]: > 10 µM
- IC50 [9]: > 10 µM
- IC50 [10]: > 10 µM
- IC50 [11]: > 10 µM
- IC50 [12]: > 10 µM
- IC50 [13]: > 10 µM
- IC50 [14]: > 10 µM
- IC50 [15]: > 10 µM
- IC50 [16]: 9.33 µM
- IC50 [17]: > 10 µM
- IC50 [18]: 0.49 µM
- IC50 [19]: 0.708 µM
- IC50 [20]: > 10 µM
- IC50 [21]: > 10 µM
- IC50 [22]: > 10 µM
- IC50 [23]: > 10 µM
- IC50 [24]: > 10 µM
- IC50 (TGF-beta receptor type-1): > 10 µM
- IC50 [25]: > 10 µM
- IC50 (Activated CDC42 kinase 1): > 10 µM
- IC50 [26]: > 10 µM
- half-life [27]: 1.2 h
- half-life [28]: 6.1 h
- bioavailability [29]: 88%
- inhibition (INH) (Cytochrome P450 1A2): Active
- IC50 [32]: > 5.89 µM
- IC50 [33]: > 10 µM
- IC50 [34]: > 10 µM
SMILES: CC(C)(C)NS(=O)(=O)c1cncc(-c2ccn3nc(N)nc3c2)c1
- Activity (Mus musculus [30]): 18%
- Activity (Mus musculus [31]): 73%
